From ChEMBL document CHEMBL1148123, “New diterpenes and norditerpenes from the fruits of Vitex rotundifolia” (2002) come the findings set out here.

One assay concerns PC-12. Put plainly: Cytotoxicity against rat PC12 cells assessed as growth inhibition after 72 hrs by MTT assay. In kind it is functional. The conditions noted are these: PC-12, 72 h.
Another assay deals with HCT-116. The assay can be described thus: Cytotoxicity against human HCT116 cells assessed as growth inhibition after 72 hrs by MTT assay. The assay is classed as functional. As to conditions: HCT-116, 72 h. (Formazan colour is commonly taken as a measure of viable cells.)

SMILES strings stand for the structures. In brackets after ≈: the same amount, converted by molar mass.

With `CC(=O)O[C@@H]1C[C@@H](C)[C@]2(CCC(=O)O2)[C@@]2(C)CCCC(C)(C)[C@H]12`, the GI50 in the assay on PC-12 and in the assay with HCT-116 was more than 5 µg/mL throughout.

Take `COc1ccc([C@@H]2CC(=O)c3c(cc(OC)c(OC)c3O)O2)cc1O`: the figures for the concentration for 50% growth inhibition (GI50) with PC-12 and with HCT-116 were 2.27 µg/mL (≈ 6.55 µM) and 2.87 µg/mL (≈ 8.29 µM), respectively.

As to `CO[C@H]1C[C@@]2(CC[C@@]3(O2)[C@H](C)C[C@@H](OC(C)=O)[C@H]2C(C)(C)CCC[C@@]23C)[C@H](OC)O1` (relative stereo), the GI50 in the assay on PC-12 and with HCT-116 was more than 5 µg/mL each time.

As to `COc1ccc(-c2oc3cc(OC)c(OC)c(O)c3c(=O)c2OC)cc1OC` [ARTEMETIN], the GI50 in the assay with PC-12 amounted to 2.27 µg/mL (≈ 5.84 µM); with HCT-116, 2.2 µg/mL (≈ 5.66 µM).

In the case of `COc1ccc(-c2oc3cc(OC)c(OC)c(O)c3c(=O)c2OC)cc1O` [CASTICIN], the GI50 in the assay on PC-12 stood at 0.114 µg/mL (≈ 0.305 µM); in the assay with HCT-116, 0.119 µg/mL (≈ 0.318 µM).

Consider `CC(=O)O[C@@H]1C[C@@H](C)[C@](O)(CCC2=CC(=O)OC2)[C@@]2(C)CCCC(C)(C)[C@H]12` [VITEXILACTONE], for which the GI50 with PC-12 and in the assay with HCT-116 was more than 5 µg/mL each time.

A word on the GI50: it is the concentration that inhibits growth by half.
